In US7915420B2, “Aryl piperidine amides” (Janssen Pharmaceutica NV, priority 2003, dated 2011) one finds IC50 data, which are given here for eleven compounds.

The target in the test is T1, human glycine transporter-2 (GlyT2) (Homo sapiens, UniProt Q9Y345).
T1 construct: The entire coding region of the human GlyT2 cDNA was cloned into the mammalian expression vector pCINeo; expressed in transfected cells; host or cells: Cos-7 cells (African green monkey kidney), stably transfected, vector pCINeo, G418 selection
T1 sequence (Q9Y345 1-797): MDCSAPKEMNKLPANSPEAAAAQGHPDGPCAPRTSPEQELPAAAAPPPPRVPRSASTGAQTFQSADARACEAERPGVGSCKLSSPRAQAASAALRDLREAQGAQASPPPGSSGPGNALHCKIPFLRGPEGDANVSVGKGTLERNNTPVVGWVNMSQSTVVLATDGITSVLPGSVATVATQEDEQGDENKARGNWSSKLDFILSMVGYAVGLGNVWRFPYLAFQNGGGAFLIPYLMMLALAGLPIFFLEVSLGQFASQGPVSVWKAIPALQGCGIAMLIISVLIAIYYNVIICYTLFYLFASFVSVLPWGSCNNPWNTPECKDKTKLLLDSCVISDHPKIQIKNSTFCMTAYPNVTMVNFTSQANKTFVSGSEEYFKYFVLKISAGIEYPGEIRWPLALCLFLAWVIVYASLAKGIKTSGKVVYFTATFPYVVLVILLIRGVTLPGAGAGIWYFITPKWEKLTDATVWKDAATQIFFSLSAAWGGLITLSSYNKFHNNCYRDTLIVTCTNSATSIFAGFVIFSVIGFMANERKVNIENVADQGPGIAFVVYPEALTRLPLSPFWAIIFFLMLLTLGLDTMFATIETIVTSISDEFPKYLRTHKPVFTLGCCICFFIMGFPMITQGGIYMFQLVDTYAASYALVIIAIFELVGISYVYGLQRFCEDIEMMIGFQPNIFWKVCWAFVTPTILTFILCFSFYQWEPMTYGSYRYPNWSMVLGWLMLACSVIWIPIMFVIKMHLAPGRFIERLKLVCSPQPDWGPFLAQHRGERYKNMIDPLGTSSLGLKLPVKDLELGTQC
Put plainly: GlyT2 inhibitory activity: inhibition of [14C]-glycine uptake in COS-7 cells transfected with human GlyT2. Conditions: Cos-7 cells stably transfected with human GlyT2; 20 μM 14C-glycine, 2 h at 37° C. It counts as cell-based. The method, then: GlyT2 antagonist activity of representative compounds of the invention was determined in accordance with the assay described in the Examples and by measuring the ability of compounds to inhibit the uptake of [^14C]-glycine in COS-7 cells transfected with the human glycine transporter-2 (GlyT2). The GlyT2 antagonist activities of these representative compounds are set forth hereinafter in Table 1.
Cos-7 cells (African green monkey, kidney) from American Type Culture Collection were grown in DMEM supplemented with 10% fetal bovine serum. The entire coding region of the human GlyT2 cDNA was cloned into the mammalian expression vector pCINeo, and then stably transfected into Cos-7 cells. Transfection was performed essentially as described by T. W. Lovenberg et al. (Mol. Pharmacol. 1999, 55:1101-1107). Cells are grown to 70-80% confluence, removed from the plate with trypsin, and pelleted in a clinical centrifuge. The pellet is resuspended in 400 μL complete medium and transferred to an electroporation cuvette with a 0.4 cm gap between the electrodes (Bio-Rad, 165-2088). One microgram of supercoiled GlyT2 cDNA is added to the cells, and the suspension is mixed. The voltage for the electroporation is set at 0.25 kV, and the capacitance is set at 960 μF. After electroporation, the cuvette contents are diluted to 10 mL with complete medium, and 0.5 mL, 1.0 mL, 2.0 mL and remainder (−6.5 mL) portions are plated onto four 10-cm dishes. The cells are incubated 24 h before adding 600 μg/mL G418. Colonies that survive selection are isolated and tested for GlyT2 expression.
The day before the assay, the GlyT2 expressing cells were plated into 96-well scintillating microplates (Amersham, RPNQ 0160) at a density of approximately 20,000 cells per well. Cells were grown overnight at 37° C. in 5% CO2 and then washed once with 37° C. HEPES buffered saline (HBS: 150 mM NaCl, 20 mM HEPES, 1 mM CaCl2, 10 mM glucose, 5 mM KCl, 1 mM MgCl2; pH 7.4). Eighty microliters of 37° C. HBS was subsequently added to each well. Test solutions of GlyT2 inhibitors were prepared in HBS from DMSO stock solutions, and 5 μL of test solution was added to each test well. Total transport and non-specific background were determined by adding 5 μL HBS or 5 μL 2 M glycine, respectively, to the appropriate control wells. Plates were then left at room temperature for 5 min before the addition of 20 μL of 100 μM ^14C-glycine (NEN, NEC 048H) to each well for a final concentration of 20 μM. Plates were incubated for 2 h at 37° C. with 5% CO2. After 2 h the reaction mixtures were removed by aspiration, and the plates were washed once with ice-cold HBS. Plates were sealed with TopSeal (Packard, 6005185) and counted on a Packard TopCount® scintillation counter.

pIC50: −log10 of the molar value. Where only a bound is given, the exact number is not on record here.

The term pIC50 denotes the negative decadic logarithm of the IC50, by convention in mol/L. Low values mean a high IC50, high ones a low IC50.

In turn, `CC(C)Oc1ccccc1N(C)CCNCc1cccc(C(=O)N2CCCCC2)c1` [Example 28, [3-({2-[(2-Isopropoxy-phenyl)-methyl-amino]-ethylamino}-methyl)-phenyl]-piperidinyl-methanone] showed a pIC50 of 5.46. As for `CC(C)Oc1ccccc1N(C)CCN(C)Cc1cccc(C(=O)N2CCCCC2)c1` [Example 29, {3-[({2-[(2-Isopropoxy-phenyl)-methyl-amino]-ethyl}-methyl-amino)-methyl]-phenyl}-piperidin-1-yl-methanone], the figure is less than 5.00. `CC(C)Oc1cccc(NCCN(C)Cc2cccc(C(=O)N3CCCCC3)c2)c1` [Example 30, [3-({[2-(3-Isopropoxy-phenylamino)-ethyl]-methyl-amino}-methyl)-phenyl]-piperidin-1-yl-methanone] showed a pIC50 of 6.00. For the compound `CC(C)Oc1cccc(N(C)CCN(C)Cc2cccc(C(=O)N3CCCCC3)c2)c1` [Example 31, {3-[({2-[(3-Isopropoxy-phenyl)-methyl-amino]-ethyl}-methyl-amino)-methyl]-phenyl}-piperidin-1-yl-methanone], the pIC50 was 5.80. As for `CC(C)Oc1ccccc1CCCNCc1cccc(C(=O)N2CCCCC2)c1` [Example 33, (3-{[3-(2-Isopropoxy-phenyl)-propylamino]-methyl}-phenyl)-piperidin-1-yl-methanone], the figure is 5.40. As for `CC(C)Oc1ccccc1NCCNCc1cc(C(=O)N2CCCCC2)cs1` [Example 34, (5-{[2-(2-Isopropoxy-phenylamino)-ethylamino]-methyl}-thiophen-3-yl)-piperidin-1-yl-Methanone], the figure is 5.51; as for `Nc1ccccc1NCCNCc1cc(C(=O)N2CCCCC2)cs1` [Example 35, (5-{[2-(2-Amino-phenylamino)-ethylamino]-methyl}-thiophen-3-yl)-piperidin-1-yl-methanone], less than 5.00; as for `CC(C)Nc1ccccc1NCCNCc1cc(C(=O)N2CCCCC2)cs1` [Example 36, (5-{[2-(2-Isopropylamino-phenylamino)-ethylamino]-methyl}-thiophen-3-yl)-piperidinyl-methanone], 5.51. In the case of `CC(C)Oc1ccccc1NCCNCc1cccc(C(=O)N2CCCC2)c1` [Example 38, (3-{[2-(2-Isopropoxy-phenylamino)-ethylamino]-methyl}-phenyl)-pyrrolidin-1-yl-methanone], the pIC50 is 5.52.

Compound `CC(C)Oc1ccccc1NCCNCc1cccc(C(=O)N2CCCCCC2)c1` [Example 39, Azepan-1-yl-(3-{[2-(2-isopropoxy-phenylamino)-ethylamino]-methyl}-phenyl)methanone.] had a pIC50 of 5.74. For the compound `CC(C)Oc1ccccc1NCCNCc1cccc(C(=O)N2CCC(O)CC2)c1` [Example 41, (4-Hydroxy-piperidin-1-yl)-(3-{[2-(2-isopropoxy-phenylamino)-ethylamino]-methyl}-phenyl)-methanone], the negative-log IC50 (pIC50) is less than 5.00.
